Laboratory results from patent US4122199A, “Amides of pyrrolidinoethylamine which can be used in treatment of coughs” (Pierre Fabre S.A., priority 1976, dated 1978).
Where a name gives a salt, the structure may show the parent alone. Read-outs that look alike come from different tables or passages of the source.

How the values were obtained:
[1] = Hygroscopicity of crystals; assay type: physicochemical
[2] = in vivo; conditions: mouse, in vivo, mice, isotonic aqueous solution
Protocol: It is determined on mice, the products being administered orally, intraperitoneally, and intraveneously in isotonic aqueous solution.

[3] = Solubility characteristics; assay type: physicochemical
[4] = tested on: guinea pigs; assay: Citric acid aerosol method on guinea pigs (antitussive); assay type: in vivo; conditions: orally, citric acid aerosol
Protocol: The animals were subjected to a 20% citric acid aerosol for 15 minutes.
The coughs were recorded by a microphone.
The products were administered intraperitoneally 20 minutes before the exposure to the aerosol.
Some derivatives were also tested orally.

With `CCC(C(=O)NCCN1CCCC1)c1ccccc1` (stereo not drawn) [F 1419, N(2'-pyrrolidino-ethyl)-α-phenyl-α-ethyl acetamide hydrochloride] the Hygroscopicity [1] was “slightly hygroscopic”, the LD50 ([2]; ip, intraperitoneal, read-out: DL 50 intraperitoneal) was 200 mg/kg and the LD50 ([2]; iv, intravenous, read-out: DL 50 intravenous) was 76 mg/kg. For the same molecule, the LD50 ([2]; po, oral, read-out: DL 50 oral) was 660 mg/kg, the “Solubility in N-methyl pyrrolidone” value ([3]; N-methyl pyrrolidone, % soluble) was 7% and the Solubility in ethanol ([3]; ethanol, % soluble) was 15%. The Solubility in ether ([3]; ether, in words) was “insoluble”, the “Solubility in propylene glycol” value ([3]; propylene glycol, % soluble) was 25% and the Solubility in water ([3]; water, in words) was “very soluble”. For the same molecule, the “% decrease in no. coughs in 15 mins.” value ([4]; 50 mg/kg) was -22 and the “% decrease in no. coughs in 15 mins.” value ([4]; 100 mg/kg) was -40.
